The NIST ThermoML archive (doi:10.1016/j.jct.2007.03.002)
Values joined by “and” are separate entries in the source; they are usually repeats but may differ in a detail not shown here. Equal values may be shown once. ± gives the expanded uncertainty stated by the source.

Tests used:
[1] = Crystal; for vapor or sublimation pressure: Calculated from knudsen effusion weight loss; for Normal melting temperature: DTA
[2] = molar enthalpy of vaporization or sublimation; conditions: 298.15 K; Crystal; Static calorimetry
[3] = molar heat capacity at constant pressure; conditions: 298.15 K; 101.33 kPa; Crystal; Drop calorimetry
[4] = Molar enthalpy of transition or fusion; conditions: Crystal; DSC

For OCc1ccccc1-c1ccccc1 [2-biphenylmethanol], the “vapor or sublimation pressure” value ([1]; 313 K) was 0.0001171 ± 3.5e-05 kPa and 0.0001179 ± 3.6e-05 kPa, the “vapor or sublimation pressure” value ([1]; 316 K) was 0.0001736 ± 5.2e-05 kPa and the “vapor or sublimation pressure” value ([1]; 319 K) was 0.0002555 ± 7.7e-05 kPa and 0.0002537 ± 7.7e-05 kPa. For the same compound, the “vapor or sublimation pressure” value ([1]; 322 K) was 0.0003732 ± 0.00011 kPa and 0.0003682 ± 0.00011 kPa, the Normal melting temperature [1] was 49.2 ± 0.7 °C and the molar enthalpy [2] was 25.6 ± 0.311 kcal/mol. For the same compound, the “molar heat capacity at constant pressure” value [3] was 268.98 ± 22 J/K/mol and the “Molar enthalpy of transition or fusion” value [4] was 4.71 ± 0.12 kcal/mol.
Work on OCc1ccc(-c2ccccc2)cc1 [4-biphenylmethanol] yielded a mass density ([1]; 298.15 K, 101.33 kPa, mass and size of pellet) of 1390 ± 360 kg/m3, a Normal melting temperature [1] of 100.6 ± 0.7 °C and a molar enthalpy [2] of 25.6 ± 0.86 kcal/mol. For the same compound, the “molar heat capacity at constant pressure” value [3] was 256.08 ± 66 J/K/mol and the “Molar enthalpy of transition or fusion” value [4] was 6.45 ± 0.143 kcal/mol.
